This passage reports Kd results from paper PMC3673936, “Molecular Characterization and Functions of Fatty Acid and Retinoid Binding Protein Gene (Ab-far-1) in Aphelenchoides besseyi” (PLoS ONE, 2013).

In this assay the target is T1, rAb-FAR-1 (Aphelenchoides besseyi, UniProt R9QS34).
T1 construct: E. coli BL21(DE3), pET-32a (BamHI/XhoI), N-terminal His-tag fusion, Ni-purified; ORF 181 aa with predicted signal peptide; called full-length, primer FARf-BamHI lacks ATG at its start
T1 sequence (R9QS34 entry or part of it): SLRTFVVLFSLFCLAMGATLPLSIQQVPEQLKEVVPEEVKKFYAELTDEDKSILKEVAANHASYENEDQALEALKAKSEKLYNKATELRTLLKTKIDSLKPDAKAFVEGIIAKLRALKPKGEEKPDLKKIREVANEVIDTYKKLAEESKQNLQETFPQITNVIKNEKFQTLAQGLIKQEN
In words: fluorescence titration. The class given is binding.
The Kd is the concentration at which binding is half-saturated. A higher Kd goes with a looser complex. `CN(C)c1cccc2c(S(=O)(=O)NCCCCCCCCCCC(=O)O)cccc12` [DAUDA, 11-((5-dimethylaminonaphthalene-1-sulfonyl)amino) undecannoic acid] gave a Kd of 3.4 µM.
`CC\C=C/C=C/C=C/C=C\CCCCCCCC(=O)O` [cis-parinaric acid] displayed a Kd of 6.69 µM.
Molecule `CC1=C(/C=C/C(C)=C/C=C/C(C)=C/CO)C(C)(C)CCC1` [retinol] had a dissociation constant (Kd) of 3.41 µM.
